Measured values as given in patent publication US10463745B2, “Materials for tissue regeneration” (Northwestern University, priority 2015, dated 2019).
Groups on a side chain read outwards from the residue. No end group written: not given here. BMPH = maleimide-and-hydrazide crosslinker; PPCN hydrogel = not defined here

Tests used:
[1] = test system: human dermal fibroblasts and human epithelial keratinocytes; experiment: Self-assembled monolayer (SAM) cell adhesion assay; format: cell-based; details: HDFs and HEKas
Description: Cysteine-terminated peptides were synthesized manually on Fmoc-Rink amide MHBA resin using a standard solid phase peptide synthesis protocol. They were purified using reverse-phase HPLC with a C18 column, and the final products were characterized by matrix-assisted laser desorption/ionization time of flight mass spectrometry (MALDI-TOF MS). Self-assembled monolayer cell adhesion assay was performed (ref 56; incorporated by reference in its entirety). Maleimide-terminated alkanethiol was self-assembled on the gold surfaces to form the well-organized monolayer. Known amount of characterized Cysteine-terminated peptides were dissolve in 0.1% trifluoroacetic acid solution and incubate with the surface to allow peptide absorption on the surface via thiol-maleimide reaction. The resulting surfaces were characterized by MALDI-TOF MS for peptide adsorption before being used for HDFs and HEKas adhesion studies. The adherent cells were counted 2 hours after the initial seeding. […]
The synthesized peptides were immobilized onto SAM chips by incubating the chips with 100 μM peptide solution in PBS at room temperature for 1 hr. […] Peptide chips were then mounted with Vectashield+DAPI and imaged on a Nikon Eclipse TE2000-U inverted fluorescence microscope. The number of cells per field of view was counted using ImageJ software. […]

[2] = test system: db/db mice full-thickness wound; experiment: Diabetic splinted excisional wound healing model, wound closure; format: in vivo, mouse
Description: To prevent skin contraction, paired pre-sterilized doughnut-shaped splints (10-mm inner diameter; 12-mm outer diameter) made from 0.5-mm-thick acrylate tape (3M, St. Paul, Minn.) were attached to the left and right dorsal sides of the mouse with Vetbond (3M) and interrupted 6-0 nylon sutures (Ethicon, Cincinnati, Ohio) after depilation. A 6-mm circular, full-thickness wound was made in the center of each splinted area. 40 μl of gel solution was applied to each wound bed. A transparent sterile occlusive dressing TegaDerm™ (3M) was then placed over the wound and the splint. Digital images of the wound area were taken every other day, and quantified in ImageJ by normalizing the wound area to the known splint area at each time point. Hydrogel dressings were reapplied on day 6, after gently rinsing the wound with cold 1× PBS.

[3] = test system: Human dermal fibroblasts; experiment: In vitro 3D cell culture, live/dead stain, confocal imaging of cell spreading; format: cell-based; details: HDFs
Description: Cell culture medium (KGM-Gold for HEKa, DMEM+10% FBS for HDF) was then added to each well, and cells were cultured at 37° C. and 5% CO2. After 5 or 10 days, the gels were washed twice with warm 1×PBS, and stained with live/dead stain (2 uM calcein AM and 2 uM ethidium homodimer-1) at 37° C. for 15 min. The samples were then washed twice with warm 1×PBS and imaged on a Nikon C2 Confocal microscope.

[4] = test system: integrin α3 and α6 on HDFs; experiment: Proliferation inhibition with anti-integrin α3 and α6 antibodies; format: cell-based, human; details: 5 days
Description: The mouse monoclonal antibody against human integrin α6 and α3 were purchased from Santa Cruz (Dallas, T A), and dialyzed with 10,000 MWCO Dialysis Cassettes dialysis cassette (Thermo Scientific) overnight to remove the sodium azide. […] Before cell encapsulation, HDFs were pre-incubated in suspension with corresponding anti-integrin antibodies (final concentration 10 μg/mL) for 15 min at 37° C. Then the pre-treated HDFs (1×10^4 cells per 50 μL scaffold per well) were incubated on the ultra-low attachment plate (Coring, Coring, NY) for 5 days at 37° C. in 5% CO2. Anti-integrin antibodies treatments were also added in the culture media for the corresponding groups (10 μg/mL), and the media was changed every other day. After 5 days of incubation, total DNA content within each scaffold was quantified using PicoGreen DNA quantification assay as mentioned above.

[5] = test system: db/db mice wound tissue; experiment: Histology and immunofluorescence of regenerated wound tissue; format: in vivo, mouse
Source text: Upon full closure of the wounds (for the first batch study) or 10 days after the initial wound surgery (for the second batch study), animals were euthanized and the regenerated wound tissue was excised with a 10-mm biopsy punch (Acuderm, Fort Lauderdale, Fla.), fixed using 4% paraformaldehyde and embedded by paraffin. The tissues were then sectioned and processed for hematoxylin and eosin (H&E) staining to measure granulation tissue thickness, and the epithelial gap histomorphometrically. The granulation tissue thickness and epithelial gap was measured based on 5 different H&E images for each group by blinded observer using ImageJ. The tissue sections were also stained for Keratin 10, Integrin α3 or F4/80 (Santa Cruz, Dallas, Tex.) The secondary antibodies used were either conjugated to AlexaFluor488 or AlexaFluor555 (Invitrogen, Carlsbad, Calif.).

[6] = test system: HDFs; experiment: Cell cycle analysis by flow cytometry with propidium iodide; format: cell-based, human; details: HDFs in gel
Description: A flow cytometric analysis, with propidium iodide (PI), was performed in order to measure the cell cycle activity. At each time point, cell encapsulated scaffolds were liquefied, and the cells were extracted via centrifuging. The cells were then washed with ice-cold PBS, and fixed with 70% ice-cold ethanol for 1 h before repeated washing with PBS and re-suspension in PBS with 0.5 mg/mL Rnase A (Thermo Fisher Scientific). After 1 h incubation, the cellular DNA was then stained with PI (50 μg/mL) for 20 min while protected from the light at 4° C. The relative DNA concentration of the stained cells was measured using a BD LSRII flow cytometer (Becton Dickinson, San Jose, Calif.).

[7] = test system: HDFs; experiment: PicoGreen total DNA quantification (proliferation in 3D culture); format: cell-based, human; details: HDFs in gel, over the course of 10 days
Description: HDF encapsulated hydrogel scaffold samples were prepared and cultured using the same method as the in vitro 3D cell culture with 10 K cells per 50 μl hydrogel per sample. At each time point, after removing the medium, the samples were cooled on ice, and the cells were lysed by PBS-3% Triton-X. The Quant-iT PicoGreen dsDNA assay kit (Life Technologies) was employed according to the manufacturer's protocol, and the results were read in triplicates. Samples of […] were accessed using microplate reader (Tecan, Männedorf, Switzerland); fluorescence was quantified at 520 nm with excitation at 480 nm.

Row | Substance | cell adhesion on SAMs presenting the peptide [1] | time to complete wound closure [2] | percent wound closure ([2]; day 10) | complete closure faster than P-RGD ([2]; versus P-RGD) | complete closure faster than PPCN and P-IP ([2]; versus PPCN and P-IP) | cell spreading in 3D culture ([3]; day 5) | cell spreading in 3D culture ([3]; day 10) | cell proliferation (total DNA) under complete blocking ([4]; both anti-α3 and anti-α6, 10 μg/mL) | cell proliferation (total DNA) under partial blocking ([4]; only anti-α3 or anti-α6, 10 μg/mL) | granulation tissue thickness ([5]; by the time of closure, compared with PPCN, P-RGD and P-IP groups) | wound histology at day 10 within the same animal ([5]; db/db mice, day 10, P-A5G81 side vs P-IP side) | epidermal gap relative to that of the P-IP control wounds ([5]; db/db mice, day 10, after two applications) | epithelial gap ([5]; db/db mice, day 30) | integrin α3 positive cells in wound tissue ([5]; db/db mice, day 30) | wound opening relative to the initial wound size ([5]; db/db mice, day 30) | macrophage marker F4/80 staining ([5]; db/db mice, day 30, foreign body response) | Keratin 10 staining, epithelium structure ([5]; db/db mice, day 30, wound centre) | S phase percentage ([6]; day 5) | S phase percentage ([6]; day 10) | cell proliferation rate (total DNA content) [7]
1 | A5G81: 12 amino acid laminin α5 globular domain derived peptide AGQWHRVSVRWG (listed as Mus musculus) | excellent cell adhesion properties |  |  |  |  |  |  |  |  |  |  |  |  |  |  |  |  |  |  | 
2 | IP: inactive form of A5G81 (WHRVSVC), negative control (WHRVSVC-NH2) [reference compound] | very low cell adhesive properties |  |  |  |  |  |  |  |  |  |  |  |  |  |  |  |  |  |  | 
3 | P-A5G81: PPCN hydrogel conjugated via BMPH linker to cysteine-terminated A5G81 peptide (AGQWHRVSVRWGC([BMPH-PPCN hydrogel])-NH2; reading uncertain; also: conjugated to PPCN hydrogel via BMPH linker at C-terminal Cys) |  | 21 days | 45.3% | 3 days | one week faster | began to spread | fully elongated with typical fibroblast morphology | close to the unfunctionalized PPCN scaffold | partial decrease of the cell proliferation | significantly thicker | thick granulation tissue was already prominent | 25% | 340 μm | significant amount of α3 positive cells | around 5% | minimum amount of macrophages | multi-layer epithelium structure | 21% | 26.6% | higher cell proliferation rate
